SMILES strings stand for the structures. “And” between values parts separate entries of the source, which are not always exact repeats. Equal entries are not always repeated. Inconclusive results and toxic doses are left out.

The subject of this test is P388 leukemia ip, CD2F1 mice, survival T/C. Description: NCI In Vivo Anticancer Drug Screen. Data for tumor model P388 Leukemia (intraperitoneal) in CD2F1 (CDF1) mice. The note with it: endpoint: median survival time, higher = longer survival. Summed up: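 Mice carrying the transplanted tumor received test compound or vehicle. Survival was recorded in each group, and the value is the treated-group measurement divided by that of the vehicle-treated control group.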

Setting [1] is: dose: 50.0 mg/kg/injection, schedule: Q01DX005 (ip), vehicle: Klucel (hydroxypropylcellulose) (HPC).
Where [2] appears, read: dose: 100.0 mg/kg/injection, schedule: Q01DX005 (ip), vehicle: Klucel (hydroxypropylcellulose) (HPC).
[3] abbreviates: dose: 200.0 mg/kg/injection, schedule: Q01DX005 (ip), vehicle: Klucel (hydroxypropylcellulose) (HPC).
Setting [4] is: dose: 50.0 mg/kg/injection, schedule: Q01DX005 (ip), vehicle: saline with Tween-80.
The mark [5] stands for this setting: dose: 100.0 mg/kg/injection, schedule: Q01DX005 (ip), vehicle: saline with Tween-80.
Where [6] appears, read: dose: 200.0 mg/kg/injection, schedule: Q01DX005 (ip), vehicle: saline with Tween-80.
[7] abbreviates: dose: 12.5 mg/kg/injection, schedule: Q01DX005 (ip), vehicle: saline with Tween-80.
Where [8] appears, read: dose: 25.0 mg/kg/injection, schedule: Q01DX009 (ip), vehicle: saline with Tween-80.
Where [9] appears, read: dose: 50.0 mg/kg/injection, schedule: Q01DX009 (ip), vehicle: saline with Tween-80.
The mark [10] stands for this setting: dose: 100.0 mg/kg/injection, schedule: Q01DX009 (ip), vehicle: saline with Tween-80.
The mark [11] stands for this setting: dose: 200.0 mg/kg/injection, schedule: Q01DX009 (ip), vehicle: saline with Tween-80.
The mark [12] stands for this setting: dose: 100.0 mg/kg/injection, schedule: Q01DX009 (ip), vehicle: Klucel (hydroxypropylcellulose) (HPC).
Setting [13] is: dose: 200.0 mg/kg/injection, schedule: Q01DX009 (ip), vehicle: Klucel (hydroxypropylcellulose) (HPC).
Where [14] appears, read: dose: 60.0 mg/kg/injection, schedule: Q01DX005 (ip), vehicle: saline with Tween-80.
The mark [15] stands for this setting: dose: 120.0 mg/kg/injection, schedule: Q01DX005 (ip), vehicle: saline with Tween-80.
The mark [16] stands for this setting: dose: 240.0 mg/kg/injection, schedule: Q01DX005 (ip), vehicle: saline with Tween-80.
Where [17] appears, read: dose: 50.0 mg/kg/injection, schedule: Q01DX009 (ip), vehicle: saline.

For the molecule `CCCCCOc1cc2c(cc1C(C)c1ccc(OC)cc1)OCO2` (stereo not drawn), the T/C was 107 % of control under setting [1], 103 % of control under setting [2] and 98 % of control under setting [3].
`N#C/C(=C1/OC(=N)C(c2ccccc2Cl)C1=O)c1ccccc1Cl` (stereo not drawn): the T/C was 103 % of control under setting [4], 107 % of control under setting [5] and 103 % of control under setting [6].
On to `CCCCN=NNCCCC`, for which the T/C by setting is: under setting [7], 110 % of control; under setting [4], 151 % of control.
Regarding `O=C(OCC1OC(n2cc(C(F)(F)F)c(=O)[nH]c2=O)CC1O)c1ccc([N+](=O)[O-])cc1` (stereo not drawn), the T/C runs as follows: (dose: 6.25 mg/kg/injection, schedule: Q01DX005 (ip), vehicle: Klucel (hydroxypropylcellulose) (HPC)) 110 % of control; (dose: 12.5 mg/kg/injection, schedule: Q01DX005 (ip), vehicle: Klucel (hydroxypropylcellulose) (HPC)) 110 % of control; (dose: 25.0 mg/kg/injection, schedule: Q01DX005 (ip), vehicle: Klucel (hydroxypropylcellulose) (HPC)) 115 % of control; under setting [1], 161 % of control.
With `C=C1C2(CN)CCC(C2)C1(C)C` (stereo not drawn), the T/C is, setting by setting: (dose: 6.25 mg/kg/injection, schedule: Q01DX009 (ip), vehicle: saline with Tween-80) 101 % of control; (dose: 12.5 mg/kg/injection, schedule: Q01DX001 (ip), vehicle: saline with Tween-80) 96 % of control; (dose: 12.5 mg/kg/injection, schedule: Q01DX009 (ip), vehicle: saline with Tween-80) 98 % of control; (dose: 25.0 mg/kg/injection, schedule: Q01DX001 (ip), vehicle: saline with Tween-80) 101 % of control; under setting [8], 98 % of control; (dose: 50.0 mg/kg/injection, schedule: Q01DX001 (ip), vehicle: saline with Tween-80) 99 % of control.
For `Clc1ccc(Cl)nn1`, the T/C by setting is: under setting [9], 97 % of control; under setting [10], 100 % of control; under setting [11], 100 % of control.
As to `O=C(O)c1c2c(nc3ccccc13)Cc1ccccc1-2`, the T/C reads like this: (dose: 6.25 mg/kg/injection, schedule: Q01DX009 (ip), vehicle: Klucel (hydroxypropylcellulose) (HPC)) 97 % of control; (dose: 6.25 mg/kg/injection, schedule: Q01DX009 (ip), vehicle: water) 101 % of control; (dose: 12.5 mg/kg/injection, schedule: Q01DX009 (ip), vehicle: Klucel (hydroxypropylcellulose) (HPC)) 98 % of control; (dose: 12.5 mg/kg/injection, schedule: Q01DX009 (ip), vehicle: water) 99 % of control and 109 % of control; (dose: 25.0 mg/kg/injection, schedule: Q01DX009 (ip), vehicle: Klucel (hydroxypropylcellulose) (HPC)) 106 % of control; (dose: 25.0 mg/kg/injection, schedule: Q01DX009 (ip), vehicle: water) 104 % of control and 110 % of control and 114 % of control. Also, the T/C was 110 % of control under setting [9]; 115 % of control and 121 % of control (dose: 50.0 mg/kg/injection, schedule: Q01DX009 (ip), vehicle: water); 160 % of control and 169 % of control under setting [12]; 166 % of control and 172 % of control (dose: 100.0 mg/kg/injection, schedule: Q01DX009 (ip), vehicle: water); 172 % of control and 179 % of control under setting [13]; 181 % of control under setting [11]. In addition, the T/C (dose: 200.0 mg/kg/injection, schedule: Q01DX009 (ip), vehicle: water) was 106 % of control.
With `CC(=O)NCCSSCCCCSSCCNC(C)=O`, the T/C reads like this: under setting [1], 112 % of control; under setting [2], 112 % of control.
On to `COC(=O)c1cc(-c2ccc(C)cc2)c2c(=O)n(-c3ccccc3)[nH]c2n1`, for which the T/C under setting [14] is 100 % of control, the T/C under setting [15] is 100 % of control and the T/C under setting [16] was 97 % of control.
In the case of `CCCCCCCCCCCCOCC(O)Cn1cnc2c(N)ncnc21` (stereo not drawn), the T/C is 98 % of control under setting [1], 94 % of control under setting [2] and 94 % of control under setting [3].
For the molecule `O=C(O)CCCNC(=O)Cc1ccccc1`, the T/C by setting is: (dose: 50.0 mg/kg/injection, schedule: Q01DX005 (ip), vehicle: saline) 93 % of control; (dose: 100.0 mg/kg/injection, schedule: Q01DX005 (ip), vehicle: saline) 90 % of control.
For the molecule `CCOC(=O)c1cn(C(=O)CCl)c2ccccc2c1=O`, the T/C is 103 % of control under setting [14], 100 % of control under setting [15] and 97 % of control under setting [16].
In the case of `Cc1cc(OCCS(=O)(=O)C(CCOS(C)(=O)=O)COS(C)(=O)=O)cc(C)c1Cl` (stereo not drawn), the T/C was 105 % of control (dose: 50.0 mg/kg/injection, schedule: Q01DX009 (ip), vehicle: Klucel (hydroxypropylcellulose) (HPC)); 102 % of control under setting [12]; 101 % of control under setting [13].
`CCCCCCCCCC[N+]1([O-])CCCCC1`: the T/C under setting [17] is 97 % of control.
As to `CC12C=CC(C(C(=O)O)C1=O)C2(C)C` (stereo not drawn), the T/C is 107 % of control (dose: 100.0 mg/kg/injection, schedule: Q04DX002 (ip), vehicle: saline with Tween-80) and 103 % of control (dose: 200.0 mg/kg/injection, schedule: Q04DX002 (ip), vehicle: saline with Tween-80).
`O=C(O)c1ccc2c(=O)c(C(=O)O)c[nH]c2c1`: the T/C is, setting by setting: under setting [17], 100 % of control; (dose: 100.0 mg/kg/injection, schedule: Q01DX009 (ip), vehicle: saline) 96 % of control; (dose: 200.0 mg/kg/injection, schedule: Q01DX009 (ip), vehicle: saline) 103 % of control.
Turning to `O=C1C(Cl)=C(NCCCC2CCCN3CCCCC23)C(=O)c2ccccc21` (stereo not drawn), the T/C is 100 % of control (dose: 25.0 mg/kg/injection, schedule: Q04DX002 (ip), vehicle: Klucel (hydroxypropylcellulose) (HPC)); 101 % of control (dose: 50.0 mg/kg/injection, schedule: Q04DX002 (ip), vehicle: Klucel (hydroxypropylcellulose) (HPC)); 114 % of control and 94 % of control (dose: 100.0 mg/kg/injection, schedule: Q04DX002 (ip), vehicle: Klucel (hydroxypropylcellulose) (HPC)).
On to `COC(=O)C12OCC34C(CC5C(C)=C(O)C(=O)CC5(C)C3C(O)C1O)OC(=O)C(OC(=O)C=C(C)C)C24` (stereo not drawn) (tested in a mixture with another compound), for which the T/C is, setting by setting: (dose: 0.03 mg/kg/injection, schedule: Q01DX009 (ip), vehicle: saline + alcohol) 106 % of control; (dose: 0.06 mg/kg/injection, schedule: Q01DX009 (ip), vehicle: saline + alcohol) 113 % of control; (dose: 0.13 mg/kg/injection, schedule: Q01DX009 (ip), vehicle: saline + alcohol) 107 % of control; (dose: 0.25 mg/kg/injection, schedule: Q01DX009 (ip), vehicle: saline + alcohol) 98 % of control; (dose: 0.5 mg/kg/injection, schedule: Q01DX009 (ip), vehicle: saline + alcohol) 94 % of control; (dose: 1.0 mg/kg/injection, schedule: Q01DX009 (ip), vehicle: saline + alcohol) 106 % of control. The T/C (dose: 2.0 mg/kg/injection, schedule: Q01DX009 (ip), vehicle: saline + alcohol) is 94 % of control.
On to `CCOC(=O)CSc1cc(O)c2ccccc2c1N=Nc1ccc(C(=O)O)cc1`, for which the T/C is, setting by setting: under setting [7], 94 % of control; (dose: 25.0 mg/kg/injection, schedule: Q01DX005 (ip), vehicle: saline with Tween-80) 88 % of control; under setting [4], 88 % of control; under setting [5], 86 % of control; under setting [6], 93 % of control.
For `Cc1ccc(N(O)C(C)(C)C)cc1`, the T/C reads like this: under setting [8], 97 % of control; (dose: 25.0 mg/kg/injection, schedule: Q04DX003 (ip), vehicle: gum acacia) 99 % of control; under setting [9], 91 % of control; (dose: 50.0 mg/kg/injection, schedule: Q04DX003 (ip), vehicle: gum acacia) 100 % of control; under setting [10], 102 % of control; (dose: 100.0 mg/kg/injection, schedule: Q04DX003 (ip), vehicle: gum acacia) 110 % of control. Also, under “dose: 200.0 mg/kg/injection, schedule: Q04DX003 (ip), vehicle: gum acacia”, the T/C is 100 % of control.

(Values after PubChem BioAssay AID330 (DTP/NCI, 2004).)
